Data as given in patent US20240384350A1, “METHODS OF TREATING CANCER WITH KINASE INHIBITORS” (BOARD OF REGENTS, THE UNIVERSITY OF TEXAS SYSTEM, priority 2021, published 2024).

Legend:
Assay in all cases: Ba/F3 drug screening, Cell Titer Glo, IC50 Mut/WT
Type in all cases: cell-based
[1] = target: T1, EGFR L858R L718Q (Homo sapiens, UniProt P00533, L718Q/L858R); conditions: Ba/F3 cells, EGFR L858R L718Q (PACC), Mut/WT
T1 construct: host or cells: Ba/F3

[2] = target: T2, EGFR S784F (Homo sapiens, UniProt P00533, S784F); conditions: Classical-Like, 72 hours
T2 construct: expressed in transfected cells; host or cells: Ba/F3 cells, retroviral pBabe-Puro vector (vector made by GeneScript from EGFR WT)
Method: (§1) Data represent the ratio of the IC50 value for a given TKI for cells with a classical-like EGFR mutation to the IC50 value for cells with wildtype EGFR.
(§2) Ba/F3 cell generation, drug screening, and IC50 approximations. Ba/F3 cells were obtained as a gift from Dr. Gordon Mills (MD Anderson Cancer Center), and maintained in RPMI (Sigma) containing 10% FBS, 1% penicillin/streptomycin, and 10 ng/ml recombinant mIL-3 (R&D Biosystems). To establish stable Ba/F3 cell lines, Ba/F3 cells were transduced with retroviruses containing mutant EGFR plasmids for 12-24 hours.
(§3) After 48-72 hours of transduction, 2 μg/ml puromycin (Invitrogen) was added to Ba/F3 cell lines in complete RPMI. To select for EGFR positive cell lines, cells were stained with PE-EGFR (Biolegend) and sorted by FACS. After sorting, EGFR positive cells were maintained in RPMI containing 10% FBS, 1% penicillin/streptomycin, and 1 ng/ml EGF to support cell viability. […] Shortly, cells were plated in 384-well plates (Greiner Bio-One) at 2000-3000 cells per well in technical triplicate. Seven different concentrations of TKIs or DMSO vehicle were added to reach a final volume of 40 μL per well. After 72 hours, 11 μL of Cell Titer Glo (Promega) was added to each well. Plates were incubated for a minimum of 10 minutes, and bioluminescence was determined using a FLUOstar OPTIMA plate reader (BMG LABTECH). Raw bioluminescence values were normalized to DMSO control treated cells, and values were plotted in GraphPad Prism. […] Drug screens were performed in technical triplicate on each plate and either duplicate or triplicate biological replicates.

[3] = target: T3, EGFR Ex19del G724S (Homo sapiens, UniProt P00533, DEL746-750/G724S); conditions: Ba/F3 cells, EGFR Ex19del G724S (PACC), Mut/WT
T3 construct: expressed in transfected cells; host or cells: Ba/F3

[4] = target: T4, EGFR A763insLQEA (Homo sapiens, UniProt P00533, INS763LQEA); conditions: Classical-Like, 72 hours
T4 construct: expressed in transfected cells; host or cells: Ba/F3 cells, retroviral pBabe-Puro vector

[5] = target: T5, EGFR L861Q (Homo sapiens, UniProt P00533, L861Q); conditions: Classical-Like, 72 hours
T5 construct: expressed in transfected cells; host or cells: Ba/F3 cells, retroviral pBabe-Puro vector
Method: as §1, §2, §3

[6] = target: T6, EGFR L858R/T790M/C797S (Homo sapiens, UniProt P00533, C797S/L858R/T790M); conditions: T790M-like-3R, 72 hours
T6 construct: expressed in transfected cells; host or cells: Ba/F3
Method: Data represent the ratio of the IC50 value for a given TKI for cells with a T790M-like-3R EGFR mutation to the IC50 value for cells with wildtype EGFR.
as §2
After 48-72 hours of transduction, 2 μg/ml puromycin (Invitrogen) was added to Ba/F3 cell lines in complete RPMI. To select for EGFR positive cell lines, cells were stained with PE-EGFR (Biolegend) and sorted by FACS. After sorting, EGFR positive cells were maintained in RPMI containing 10% FBS, 1% penicillin/streptomycin, and 1 ng/ml EGF to support cell viability. […] Shortly, cells were plated in 384-well plates (Greiner Bio-One) at 2000-3000 cells per well in technical triplicate. Seven different concentrations of TKIs or DMSO vehicle were added to reach a final volume of 40 μL per well. After 72 hours, 11 μL of Cell Titer Glo (Promega) was added to each well. Plates were incubated for a minimum of 10 minutes, and bioluminescence was determined using a FLUOstar OPTIMA plate reader (BMG LABTECH). Raw bioluminescence values were normalized to DMSO control treated cells, and values were plotted in GraphPad Prism. […] Drug screens were performed in technical triplicate on each plate and either duplicate or triplicate biological replicates. […] Statistical differences between groups were determined by ANOVA as described in the figure legends.

[7] = target: T7, EGFR Ex19del L718V (Homo sapiens, UniProt P00533, DEL746-750/L718V); conditions: Ba/F3 cells, EGFR Ex19del L718V (PACC), Mut/WT
T7 construct: expressed in transfected cells; host or cells: Ba/F3
Method: (§4) Data represent the ratio of the IC50 value for a given TKI for cells with a PACC EGFR mutation to the IC50 value for cells with wildtype EGFR.
as §2
(§5) After 48-72 hours of transduction, 2 μg/ml puromycin (Invitrogen) was added to Ba/F3 cell lines in complete RPMI. To select for EGFR positive cell lines, cells were stained with PE-EGFR (Biolegend) and sorted by FACS. After sorting, EGFR positive cells were maintained in RPMI containing 10% FBS, 1% penicillin/streptomycin, and 1 ng/ml EGF to support cell viability. Drug screening was performed as previously described^41,42. Shortly, cells were plated in 384-well plates (Greiner Bio-One) at 2000-3000 cells per well in technical triplicate. Seven different concentrations of TKIs or DMSO vehicle were added to reach a final volume of 40 μL per well. After 72 hours, 11 μL of Cell Titer Glo (Promega) was added to each well. Plates were incubated for a minimum of 10 minutes, and bioluminescence was determined using a FLUOstar OPTIMA plate reader (BMG LABTECH). Raw bioluminescence values were normalized to DMSO control treated cells, and values were plotted in GraphPad Prism. […] Drug screens were performed in technical triplicate on each plate and either duplicate or triplicate biological replicates.

[8] = target: T8, EGFR L718Q (Homo sapiens, UniProt P00533, L718Q); conditions: Ba/F3 cells, EGFR L718Q (PACC), Mut/WT
T8 construct: expressed in transfected cells; host or cells: Ba/F3

[9] = target: T9, EGFR A767insASV (Homo sapiens, UniProt P00533, DUP767-769); conditions: Ex20, 72 hours
T9 construct: expressed in transfected cells; host or cells: Ba/F3 cells, retroviral pBabe-Puro vector

[10] = target: T10, EGFR S768I/T790M (Homo sapiens, UniProt P00533, S768I/T790M); conditions: T790M-like-3S, 72 hours
T10 construct: expressed in transfected cells; host or cells: Ba/F3

[11] = target: T11, EGFR E709K G719S (Homo sapiens, UniProt P00533, E709K/G719S); conditions: Ba/F3 cells, EGFR E709K G719S (PACC), Mut/WT
T11 construct: expressed in transfected cells; host or cells: Ba/F3
Method: as §4, §2, §5

[12] = target: T12, EGFR L718V (Homo sapiens, UniProt P00533, L718V); conditions: Ba/F3 cells, EGFR L718V (PACC), Mut/WT
T12 construct: expressed in transfected cells; host or cells: Ba/F3
Method: as §4, §2, §5

[13] = target: T13, EGFR G719A L861Q (Homo sapiens, UniProt P00533, G719A/L861Q); conditions: Ba/F3 cells, EGFR G719A L861Q (PACC), Mut/WT
T13 construct: expressed in transfected cells; host or cells: Ba/F3
Method: as §4, §2, §5

[14] = target: T14, EGFR L718Q T790M (Homo sapiens, UniProt P00533, L718Q/T790M); conditions: T790M-like-3R, 72 hours
T14 construct: expressed in transfected cells; host or cells: Ba/F3

[15] = target: T15, EGFR V774M (Homo sapiens, UniProt P00533, V774M); conditions: Ba/F3 cells, EGFR V774M (PACC), Mut/WT
T15 construct: host or cells: Ba/F3
Method: as §4, §2, §5

[16] = target: T16, EGFR S768I/V769L (Homo sapiens, UniProt P00533, S768I/V769L); conditions: Ba/F3 cells, EGFR S768I/V769L (PACC), Mut/WT
T16 construct: host or cells: Ba/F3
Method: as §4, §2, §5

[17] = target: T17, EGFR A763insFQEA (Homo sapiens, UniProt P00533, INS763FQEA); conditions: Classical-Like, 72 hours
T17 construct: expressed in transfected cells; host or cells: Ba/F3 cells, retroviral pBabe-Puro vector
Method: as §1, §2, §3

[18] = target: T18, EGFR Ex19del L718Q (Homo sapiens, UniProt P00533, DEL746-750/L718Q); conditions: Ba/F3 cells, EGFR Ex19del L718Q (PACC), Mut/WT
T18 construct: expressed in transfected cells; host or cells: Ba/F3
Method: as §4, §2, §5

[19] = target: T19, EGFR L858R T790M L792H (Homo sapiens, UniProt P00533, L792H/L858R/T790M); conditions: T790M-like-3S, 72 hours
T19 construct: expressed in transfected cells; host or cells: Ba/F3
Method: Data represent the ratio of the IC50 value for a given TKI for cells with a T790M-like-3S EGFR mutation to the IC50 value for cells with wildtype EGFR.
as §2, §5

[20] = target: T20, EGFR S811F (Homo sapiens, UniProt P00533, S811F); conditions: Classical-Like, 72 hours
T20 construct: expressed in transfected cells; host or cells: Ba/F3 cells, retroviral pBabe-Puro vector (vector made by GeneScript from EGFR WT)

[21] = target: T21, EGFR E709A (Homo sapiens, UniProt P00533, E709A); conditions: Ba/F3 cells, EGFR E709A (PACC), Mut/WT
T21 construct: expressed in transfected cells; host or cells: Ba/F3

[22] = target: T22, EGFR L747P (Homo sapiens, UniProt P00533, L747P); conditions: Ba/F3 cells, EGFR L747P (PACC), Mut/WT
T22 construct: expressed in transfected cells; host or cells: Ba/F3

[23] = target: T23, EGFR V769L (Homo sapiens, UniProt P00533, V769L); conditions: Ba/F3 cells, EGFR V769L (PACC), Mut/WT
T23 construct: expressed in transfected cells; host or cells: Ba/F3
Method: as §4, §2, §5

[24] = target: T24, EGFR S768dupSVD (Homo sapiens, UniProt P00533, DUP768-770); conditions: Ex20, 72 hours
T24 construct: expressed in transfected cells; host or cells: Ba/F3 cells, retroviral pBabe-Puro vector

[25] = target: T25, EGFR L747S (Homo sapiens, UniProt P00533, L747S); conditions: Ba/F3 cells, EGFR L747S (PACC), Mut/WT
T25 construct: expressed in transfected cells; host or cells: Ba/F3
Method: as §4, §2, §5

[26] = target: T26, EGFR G719A T790M (Homo sapiens, UniProt P00533, G719A/T790M); conditions: T790M-like-3S, 72 hours
T26 construct: expressed in transfected cells; host or cells: Ba/F3

[27] = target: T27, EGFR L858R T790M V843I (Homo sapiens, UniProt P00533, L858R/T790M/V843I); conditions: T790M-like-3S, 72 hours
T27 construct: expressed in transfected cells; host or cells: Ba/F3

| SMILES | ratio of the IC50 value for cells with a PACC EGFR mutation to the IC50 value for cells with wildtype EGFR [1] | ratio of IC50 for cells with mutant EGFR to IC50 for cells with wildtype EGFR (Mut/WT) [2] | ratio of the IC50 value for cells with a PACC EGFR mutation to the IC50 value for cells with wildtype EGFR [3] | ratio of IC50 for cells with mutant EGFR to IC50 for cells with wildtype EGFR (Mut/WT) [4] | ratio of IC50 for cells with mutant EGFR to IC50 for cells with wildtype EGFR (Mut/WT) [5] | ratio of IC50 for cells with mutant EGFR to IC50 for cells with wildtype EGFR (Mut/WT) [6] | ratio of the IC50 value for cells with a PACC EGFR mutation to the IC50 value for cells with wildtype EGFR [7] | ratio of the IC50 value for cells with a PACC EGFR mutation to the IC50 value for cells with wildtype EGFR [8] | ratio of IC50 for cells with mutant EGFR to IC50 for cells with wildtype EGFR (Mut/WT) [9] | ratio of IC50 for cells with mutant EGFR to IC50 for cells with wildtype EGFR (Mut/WT) [10] | ratio of the IC50 value for cells with a PACC EGFR mutation to the IC50 value for cells with wildtype EGFR [11] | ratio of the IC50 value for cells with a PACC EGFR mutation to the IC50 value for cells with wildtype EGFR [12] | ratio of the IC50 value for cells with a PACC EGFR mutation to the IC50 value for cells with wildtype EGFR [13] | ratio of IC50 for cells with mutant EGFR to IC50 for cells with wildtype EGFR (Mut/WT) [14] | ratio of the IC50 value for cells with a PACC EGFR mutation to the IC50 value for cells with wildtype EGFR [15] | ratio of the IC50 value for cells with a PACC EGFR mutation to the IC50 value for cells with wildtype EGFR [16] | ratio of IC50 for cells with mutant EGFR to IC50 for cells with wildtype EGFR (Mut/WT) [17] | ratio of the IC50 value for cells with a PACC EGFR mutation to the IC50 value for cells with wildtype EGFR [18] | ratio of IC50 for cells with mutant EGFR to IC50 for cells with wildtype EGFR (Mut/WT) [19] | ratio of IC50 for cells with mutant EGFR to IC50 for cells with wildtype EGFR (Mut/WT) [20] | further results |
| --- | --- | --- | --- | --- | --- | --- | --- | --- | --- | --- | --- | --- | --- | --- | --- | --- | --- | --- | --- | --- | --- |
| C=CC(=O)N[C@H]1C=C(C)c2c(-c3cnc4ccccc4c3)c3c(N)ncnc3n2C1 [TAS 6417] | 0.0157 | 0.01015 | 0.2809 | 0.005254 | 0.02761 | 4.897 | 0.0009364 | 0.02239 | 0.1359 | 0.1153 | 0.007578 | 0.02378 | 0.02387 | 0.02624 | 0.3282 | 0.004702 | 0.004982 | 2.333 | 9.536E−05 | 0.009026 | ratio of the IC50 value for cells with a PACC EGFR mutation to the IC50 value for cells with wildtype EGFR [21]: 0.3054; ratio of the IC50 value for cells with a PACC EGFR mutation to the IC50 value for cells with wildtype EGFR [22]: 0.1949; ratio of the IC50 value for cells with a PACC EGFR mutation to the IC50 value for cells with wildtype EGFR [23]: 0.159; ratio of IC50 for cells with mutant EGFR to IC50 for cells with wildtype EGFR (Mut/WT) [24]: 0.05773; ratio of the IC50 value for cells with a PACC EGFR mutation to the IC50 value for cells with wildtype EGFR [25]: 0.06482; ratio of IC50 for cells with mutant EGFR to IC50 for cells with wildtype EGFR (Mut/WT) [26]: 0.01296; ratio of IC50 for cells with mutant EGFR to IC50 for cells with wildtype EGFR (Mut/WT) [27]: 0.07336 |
| C=CC(=O)Nc1cc(Nc2nccc(-n3cc(CN(C)C)c(-c4ccccc4)n3)n2)c(OC)cc1N1CCOCC1 [Lazertinib] | 3.064 | 0.245 | 1.782 | 0.1304 | 0.05622 | 23.29 | 0.04944 | 5.442 | 10.93 | 0.5236 | 0.2652 | 0.6184 | 1.406 | 3.513 | 0.9635 | 0.666 | 0.03797 | 0.08238 | 0.0005009 | 0.01158 | ratio of the IC50 value for cells with a PACC EGFR mutation to the IC50 value for cells with wildtype EGFR [21]: 0.2759; ratio of the IC50 value for cells with a PACC EGFR mutation to the IC50 value for cells with wildtype EGFR [22]: 2.92; ratio of the IC50 value for cells with a PACC EGFR mutation to the IC50 value for cells with wildtype EGFR [23]: 1.618; ratio of IC50 for cells with mutant EGFR to IC50 for cells with wildtype EGFR (Mut/WT) [24]: 4.027; ratio of the IC50 value for cells with a PACC EGFR mutation to the IC50 value for cells with wildtype EGFR [25]: 1.007; ratio of IC50 for cells with mutant EGFR to IC50 for cells with wildtype EGFR (Mut/WT) [26]: 0.00108; ratio of IC50 for cells with mutant EGFR to IC50 for cells with wildtype EGFR (Mut/WT) [27]: 0.06612 |
